Source: PMC6326523, “A high-throughput screen to identify novel small molecule inhibitors of the Werner Syndrome Helicase-Nuclease (WRN)” (PLoS ONE, 2019)
Read-outs that look alike come from different tables or passages of the source.

Columns and labels:
U2-OS cells = experiment: U2-OS cell proliferation assay (WST-1); assay type: cell-based, human; settings: 100 μM; for Effect on proliferation of U2-OS cells: Day 0 through Day 3
Experimental: WRN inhibitors were diluted in DMSO to a concentration 100-fold higher than their final concentrations. U2-OS cells in culture were counted, spun down and resuspended to 35,000 cells/mL in DMEM with 10% FBS and Pen/Strep antibiotic. For each cell condition, 15 μL of DMSO or inhibitor was added to 1.5 ml of U2-OS cells in DMEM or DMEM alone. One hundred μL of each cell condition was plated in triplicate on each of four 96-well plates representing days 0–3. Ten μL of WST-1 cell proliferation reagent (Roche) was added to the day 0 plate and readings were taken 2 hr later using a plate reader set to 450 nm. WST-1 cell proliferation reagent was added to plates on days 1–3 and readings were taken after 2 hr incubation. Percent cell proliferation was normalized to cells in the presence of DMSO with the background OD450 of DMEM with each drug subtracted out.
Fig 9 Effects of WRN helicase inhibitors on cancer cell proliferation. (A) Cell proliferation of HeLa 1.2.11 cells treated with 50 μM NCGC00029283-03, NCGC00063279-03, NCGC00357377-01 and NSC 617145 (positive control) or vehicle (DMSO) on Day 0 and Day 3 as measured using the WST-1 cell proliferation reagent. (B) Cell proliferation of U2-OS cells treated with increasing amounts of NCGC00029283-03 (0–100 μM) from Day 0 through Day 3. (C) Cell proliferation of U2-OS cells treated with increasing amounts of NCGC00063279-03 (0–100 μM) from Day 0 through Day 3. (D) Cell proliferation of U2-OS cells treated with 100 μM NCGC00357377-01 from Day 0 through Day 3.
HeLa cells are characterized by reduced expression of wild-type p53 as well as an inability to increase p53 levels after DNA damage due to human papillomavirus (HPV) elements. This raised the possibility that p53 status may play a role in the ability of small molecule WRN helicase inhibitors to affect cell proliferation. In addition, HeLa 1.2.11 cells are characterized by relatively long telomeres and use telomerase to maintain telomere length. Since WRN is implicated in the Alternative Lengthening of Telomeres (ALT) pathway, cells that are dependent on the ALT pathway may be more sensitive to WRN inhibitors as well. To address this possibility, we treated U2-OS osteosarcoma cells (which express wild-type p53 and utilize the ALT pathway for keeping very long telomeres) with all three compounds. In this case, we observed a 50% reduction in U2-OS cell proliferation two days after initial exposure to NCGC00029283-03 (100 μM).

full-length WRN helicase = molecular target: T1, full-length WRN helicase (Homo sapiens, UniProt Q14191); experiment: Radiometric helicase inhibitor assay, full-length WRN unwinding of FORKR DNA substrate; assay type: biochemical; settings: FORKR 0.5 nM; for remaining activity at 50 µM: 50 μM compound, read-out: % Control WRN Helicase Activity;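 on all read-outs here: WRN preincubated with compound 15 min at room temperature, then unwinding run 15 min at 37 °C with 2 mM ATP, relative to WRN unwinding without compound (100%)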
T1 construct: Full length recombinant WRN [18], BLM [19], and FANCJ [20] proteins were purified from insect cells; made in house; host or cells: insect cells
T1 sequence (Q14191 whole entry): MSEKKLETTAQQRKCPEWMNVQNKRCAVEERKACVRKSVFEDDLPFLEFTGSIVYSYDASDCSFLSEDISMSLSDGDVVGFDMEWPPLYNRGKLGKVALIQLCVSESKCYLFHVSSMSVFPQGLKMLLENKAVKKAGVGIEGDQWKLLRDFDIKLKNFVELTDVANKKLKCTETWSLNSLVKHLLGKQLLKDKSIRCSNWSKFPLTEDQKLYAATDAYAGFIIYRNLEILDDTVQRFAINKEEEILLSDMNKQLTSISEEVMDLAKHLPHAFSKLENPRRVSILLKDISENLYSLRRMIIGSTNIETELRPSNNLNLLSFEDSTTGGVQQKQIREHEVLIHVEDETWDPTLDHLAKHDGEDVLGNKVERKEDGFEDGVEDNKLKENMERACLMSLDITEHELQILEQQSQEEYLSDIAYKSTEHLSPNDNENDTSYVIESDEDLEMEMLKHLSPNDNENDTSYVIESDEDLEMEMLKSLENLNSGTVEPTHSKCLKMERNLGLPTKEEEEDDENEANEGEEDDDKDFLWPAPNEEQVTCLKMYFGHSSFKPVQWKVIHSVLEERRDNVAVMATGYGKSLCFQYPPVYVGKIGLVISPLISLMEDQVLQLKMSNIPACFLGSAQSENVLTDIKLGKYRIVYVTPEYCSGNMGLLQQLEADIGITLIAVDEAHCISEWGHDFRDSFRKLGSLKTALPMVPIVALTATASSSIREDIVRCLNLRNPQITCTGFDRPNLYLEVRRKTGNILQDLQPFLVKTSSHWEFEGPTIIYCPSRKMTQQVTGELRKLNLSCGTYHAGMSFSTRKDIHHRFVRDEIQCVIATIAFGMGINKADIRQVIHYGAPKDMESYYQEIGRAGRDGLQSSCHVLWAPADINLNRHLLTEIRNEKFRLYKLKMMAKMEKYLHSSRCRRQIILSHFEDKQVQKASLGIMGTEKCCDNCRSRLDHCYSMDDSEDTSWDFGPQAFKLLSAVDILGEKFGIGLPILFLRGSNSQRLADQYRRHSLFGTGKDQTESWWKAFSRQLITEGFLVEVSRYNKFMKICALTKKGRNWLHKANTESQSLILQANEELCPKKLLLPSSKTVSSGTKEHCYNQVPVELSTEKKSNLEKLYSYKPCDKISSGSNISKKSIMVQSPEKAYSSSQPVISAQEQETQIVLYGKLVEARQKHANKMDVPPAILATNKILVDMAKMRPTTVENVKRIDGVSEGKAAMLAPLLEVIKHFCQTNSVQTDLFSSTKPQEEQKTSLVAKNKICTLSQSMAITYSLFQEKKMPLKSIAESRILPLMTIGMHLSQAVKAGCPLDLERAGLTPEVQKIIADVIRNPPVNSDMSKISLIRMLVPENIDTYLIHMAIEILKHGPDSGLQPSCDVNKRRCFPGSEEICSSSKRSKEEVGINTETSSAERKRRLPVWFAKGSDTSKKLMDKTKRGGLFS
Experimental: Fifteen μL of reaction buffer was added to a microcentrifuge tube followed by the addition of 1 μL of selected compounds (0.5–100 μM final concentration) or DMSO. One μL of WRN (full length), RECQ1, FANCJ, BLM or control was added to each reaction and incubated at room temperature for 15 min. Three μL of substrate (0.5 nM FORKR and 2 mM ATP final concentrations) were added to all reactions which were incubated at 37°C for 15 min. Reactions were stopped with the addition of 20 μL of 2X STOP dye containing EDTA, glycerol, bromphenol blue and xylene cyanol. Samples were electrophoresed for 1.5 hr at 200 V on a 12% non-denaturing PAGE gel in 1X TBE Buffer.
The compounds were tested at a single concentration of 50 μM in the radiometric helicase assay with full-length recombinant WRN protein (1 nM) and the FORKR DNA substrate (0.5 nM) as described in the Materials and Methods section.
For each compound, we performed titrations over a wide range of concentrations with a fixed concentration of full-length WRN protein (1 nM), and quantitated unwinding as a percentage of full-length WRN unwinding of the FORKR DNA substrate (0.5 nM) in the absence of compound (Fig 6A and 6B, S3 Fig). […] In addition to determining an IC50 value for each compound, we also conducted helicase assays to determine the reversibility of inhibition by each compound tested. […] The reaction was diluted 100-fold with the addition of DNA substrate (0.5 nM final concentration) and ATP (2 mM final concentration) and unwinding was measured (Fig 7A–7D, S4 Fig). Inhibition was either classified as reversible, partially reversible, minimally reversible, or irreversible based on the ability of helicase activity to recover after dilution of the compound 100-fold.

[1] = molecular target: T2, GST-WRN500-946 helicase domain fragment (Homo sapiens, UniProt Q14191); experiment: Confirmatory fluorometric helicase screen, PubChem AID 720497; assay type: biochemical; settings: 20 nM GST-WRN500-946, 100 nM FORKF, NA = Not Active, read-out: IC50 (μM) Assay ID 720497
T2 construct: made in house; host or cells: insect cells
T2 sequence (Q14191 500-946): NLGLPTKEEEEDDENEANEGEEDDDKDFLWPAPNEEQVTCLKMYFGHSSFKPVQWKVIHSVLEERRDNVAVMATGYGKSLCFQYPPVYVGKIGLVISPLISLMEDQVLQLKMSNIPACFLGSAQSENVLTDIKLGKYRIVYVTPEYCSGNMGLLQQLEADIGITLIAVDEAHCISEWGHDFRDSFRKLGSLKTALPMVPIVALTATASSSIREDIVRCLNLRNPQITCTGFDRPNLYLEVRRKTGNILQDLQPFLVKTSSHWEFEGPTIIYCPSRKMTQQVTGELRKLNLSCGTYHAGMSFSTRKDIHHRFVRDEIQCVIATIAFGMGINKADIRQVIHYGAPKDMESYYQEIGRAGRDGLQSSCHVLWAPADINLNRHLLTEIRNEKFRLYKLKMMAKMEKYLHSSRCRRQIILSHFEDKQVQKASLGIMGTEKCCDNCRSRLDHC
Experimental: The structures of the members of this collection are available in the PubChem portal https://pubchem.ncbi.nlm.nih.gov/. For both the 350,000 small molecule collection and the LOPAC^1280 screens, 3 μL of GST-WRN500-946 or reaction buffer only were dispensed using a solenoid-valve nanoliter dispenser into a black 1536-well plate (Greiner). Twenty three nL of each serially diluted compound (0.08–50 μM for the LOPAC screen and 0.003–114 μM for the larger library screen) or control were added to each well using a Kalypsys pintool equipped with a 1536-pin array. Plates were incubated at room temperature for 15 min, followed by initiation of the reactions via the addition of 1 μL of substrate (100 nM FORKF and 2 mM ATP final concentrations). Plates were transferred to a ViewLux high-throughput CCD imager and fluorescence was measured in kinetic mode using an excitation filter of 525 nm and emission filter of 598 nm.
Zʹ factor, a measure for assay quality control was calculated using the formula Z′ = 1−(3σS^++3σS^−)∕|μS^+−μS^−| as described previously. In this formula, 3σS^+ represents 3 standard deviations from the mean of positive signals while 3σS^− represents 3 standard deviations from the mean of negative signals. μS^+ and μS^− represent the mean of positive signals and negative signals respectively. Percent activity was derived using in-house software (http://tripod.nih.gov/curvefit/). Dose-response curves were classified as described previously.
A collection of approximately 350,000 compounds is available for screening which has been assembled from multiple sources to provide diverse chemical scaffolds with known purity, identity and solubility. To perform the high-throughput screen of these compounds, we needed to produce approximately 50 milligrams of recombinant WRN helicase fragment. To accomplish this, we cloned the helicase domain fragment into several plasmids for either insect cell or bacterial expression to optimize expression and yield. We selected expression plasmids for insect cell expression with either a GST or MBP tag (image A in S1 Fig) and purified the protein (image B in S1 Fig). The GST-WRN500-946 fragment isolated from insect cells was used in the high throughput screen with the conditions described in Fig 2C (20 nM GST-WRN500-946, 100 nM FORKF DNA substrate) and a summary of the results can be found on PubChem (National Center for Biotechnology Information. PubChem BioAssay Database; Assay Identifier (AID) = 651768, https://pubchem.ncbi.nlm.nih.gov/bioassay/651768). […] To verify the active compounds, approximately 600 hit molecules were retested in a confirmatory screen also found on PubChem (National Center for Biotechnology Information. PubChem AID = 720497, https://pubchem.ncbi.nlm.nih.gov/bioassay/720497). Of these, a little less than four hundred compounds were confirmed as active compounds.

polymerases = test system: polymerases; design: method as in PubChem; settings: review of PubChem data from previously-conducted screens; ref PubChem; cited from earlier work
BLM helicase fragment = test system: BLM helicase fragment; design: method as in PubChem; settings: review of PubChem data from previously-conducted screens; ref PubChem; cited from earlier work
[2] = test system: Hematopoietic Protein Tyrosine Phosphatase (HePTP); design: method as in PMID 22070201; settings: separate high-throughput screen; cited from earlier work
[3] = radiometric assay, full-length WRN 1 nM, compound 0-100 μM, read-out: IC50
[4] = resynthesized or repurified compounds, full-length WRN, read-out: IC50 (μM): WRN

| SMILES | Effect on proliferation of U2-OS cells (U2-OS cells; listed as NCGC00357377) | Effect on proliferation of U2-OS cells (U2-OS cells; listed as NCGC00357377-01) | remaining activity at 50 µM (full-length WRN helicase; full-length WRN 1 nM) | IC50 (full-length WRN helicase; [3]) | IC50 (full-length WRN helicase; [4]) | IC50 [1] | Activity against polymerases in high-throughput screens (polymerases) | Activity against BLM helicase fragment in high-throughput screens (BLM helicase fragment) | Effect on proliferation of U2-OS cells (U2-OS cells) | Reduction in U2-OS cell proliferation (U2-OS cells; two days after initial exposure) | Inhibition of HePTP [2] | Reduction in U2-OS cell proliferation (U2-OS cells; after three days exposure) |
| --- | --- | --- | --- | --- | --- | --- | --- | --- | --- | --- | --- | --- |
| Cc1ccc(-c2csc(NS(=O)(=O)c3cccc(F)c3)n2)o1 [MLS002251300-02] | did not reduce cell proliferation | did not have any effect | 1% | 4 µM | 5 ± 1.4 µM | 24.1 µM |  |  |  |  |  |  |
| COc1ccc2nc(O)c(-c3noc(-c4ccc(F)cc4)n3)cc2c1 [NCGC00029283-02] |  |  | 6% | 3 µM | 2.3 ± 0.6 µM |  | some activity | no activity | also detectable after three days | 50% | inhibited |  |
| COc1ccc2nc(O)c(-c3noc(-c4ccccc4)n3)cc2c1 [NCGC00063279-02] |  |  | 18% | 12 µM | 13 ± 3.6 µM | 21.5 µM | some activity | no activity |  |  | inhibited | 40% |
